Source: patent US8158577B2, “Modulation of cartilage homeostasis by active domains of cell binding extracellular matrix molecules” (priority 2004, dated 2012)
“Also recorded” adds a separate entry of the source.

How the values were obtained:
[1] = Heparin binding on Heparin-Sepharose; conditions: eluted with NaCl (0.5, 1, 2M); Western blot or MALDI-TOF MS
Protocol: Intact recombinant protein (10 μg, EBNA-cell expressed) diluted in PBS was passed over Heparin-Sepharose (Amersham Pharmacia) (1 ml), washed with 20 volumes of PBS and eluted with 2 M NaCl (6×1 ml). Eluted material was precipitated with ethanol, separated by SDS-PAGE (10%) and visualized by western blot (CHAD ab α-80, Larsson et al). The peptide CKFPTKRSKKAGRH (SEQ ID No:7) was diluted in PBS and passed over heparin-sepharose (100 μl), the column was washed with 20 volumes PBS and bound material eluted with 0.5, 1, and 2M NaCl (3 column volumes of each).
Recombinant chondroadherin (10 or 100 μg) expressed in EBNA-cells was passed over Heparin-Sepharose-column (Pharmacia). The column was washed and eluted with 2M NaCl in PBS. Eluted material was separated on SDS-PAGE (10%) and detected by western blot using a chondroadherin antibody (see FIG. 4). The band at 36 kDa represents chondroadherin ant the band at 72 kDa represents a dimer of chondroadherin.
The candidate peptide CKFPTKRSKKAGRH (SEQ ID No: 7) was synthesized. The ability of the peptide to bind heparin was confirmed on heparin-sepharose, where material eluted with 0.5, 1 and 2M NaCl was identified by MALDI-TOF MS (data not shown).

[2] = test system: bovine chondrocytes; assay: Adhesion of bovine chondrocytes to human chondroadherin with or without cell binding peptides (FIG. 6); format: cell-based; conditions: peptide 250 μg/ml, 1 hour at 37° C., 100,000 cells/well
Protocol: Bovine chondrocytes were isolated by collagenase (CLS1; Worthington Biochemical Corp., Lakewood, N.J.) digestion of articular cartilage from 4-6 month old calves as described (10). Briefly, cartilage slices were digested for 16 hours with collagenase in EBSS (Earle's balanced salt solution, GIBCO BRL Gaithersburg, Md.). The cells were filtered through a 100 μm nylon filter, washed three times in PBS containing 0.2% BSA (SERVA).
To test cell binding, the chondrosarcoma cells or bovine chondrocytes were suspended in PBS containing 0.1% BSA, 25 U/ml collagenase and added to the wells (50,000/well), in the absence or presence of various peptide pools or the synthetic peptides (200, 100, 50, 25, 12.5 μg/ml). Non-adherent cells were removed after 1 hour and adhesion was determined by measuring lysosomal N-acetylglucosaminidase (12). Adhesion and spreading was visualized by light microscopy. […]
Tissue culture dishes were coated with 5 μg/ml chondroadherin expressed in E. coli or collagen type II and blocked for non-specific binding with BSA. […] Adhesion was determined by analyzing lysosomal hexosaminidase. Adhesion is expressed as number of cells, 100,000 cells/well was seeded. […]

- binding to heparin-sepharose [1]: confirmed; also recorded: bind heparin
Substance: H-CKFPTKRSKKAGRH-OH [SEQ ID No. 7]
- bovine chondrocyte adhesion to chondroadherin in the presence of peptide [2]: increased
